# In patent EP1566447A1, “Glimepiride- and insulin-induced glycosylphosphatidylinositol-specific phospholipase C regulation” (priority 2004, dated 2005):
# Experiments:
# [1] = system: GPI-PLC of hcDIGs from rat adipocytes; assay: adipocyte GPI-PLC assay (cleavage of AChE, TX-114 partitioning); assay type: biochemical; settings: 1 mM; hcDIGs from rat adipocytes
# Experimental: Biophys. […] Each reaction mixture was subjected to TX-114 partitioning (see below).
# After incubation for 1 h on ice, the mixture was layered onto a cushion of 0.4 ml of 0.25 M sucrose and 25 mM Tris/HCl (pH 7.4) on ice.
# Cleavage rate was calculated from the amount of hydrophilic AChE and aP activity recovered with the TX-114-depleted phase upon TX-114 partitioning.
# rat adipocytes = assay: isoproterenol-induced lipolysis measured as release of NBD-FA; assay type: cell-based; settings: 50 µM; Fig. 9 Panels A, B
# Experimental: Electroporation was performed as described in "Müller, G. et al., (2000) Mol. Cell. Biol. 20: 4708-4723". Lipolysis was determined as release of glycerol or fluorescent NBD-FA from prelabeled and isoproterenol-stimulated adipocytes as described in "Müller, G. et al., (2003) Biochimie 85: 1245-1256". Gce1 was detected by photolabeling of solubilized plasma membranes or hc/IcDIGs (10-50 µg protein) with 8-N3-[^32P]cAMP and subsequent phosphorimaging as described in "Müller, G. et al., (1994) Biochemistry 33: 12149-12159". 5'-Nuc, aP and AChE activities were measured according to "Eliakim, R. et al., (1990) Biochim. Biophys. Acta […]". Protein was determined using the BCA protein determination kit from Pierce (Rockford, IL) and BSA as calibration standard. SDS-PAGE was performed using precast gels (Novex, San Diego, CA; 10 % Bis-Tris resolving gel, morpholinopropanesulfonic acid-SDS running buffer). Lumiimages were evaluated on a Lumilmager using Lumilmager software (Roche Diagnostics). Phosphor- and fluorescence images were processed and quantified using the Storm 860 Phosphorlmager system (Molecular Dynamics, Gelsenkirchen, Germany). Figures were constructed using the Adobe Photoshop software (Adobe Systems, Mountain View, CA). […]
# [2] = system: patients with type 2 diabetes; settings: cited from earlier work
Compound,inhibition % at 1 mM [1] [%],effect on the glimepiride-induced reduction of NBD-FA release (rat adipocytes),"activation of GPI-PLC (GPI-PLC; direct incubation of hcDIGs from untreated adipocytes, Fig. 4 Panel A)","stimulation of GPI-PLC activity (GPI-PLC; hcDIGs prepared from pretreated adipocytes, Fig. 4 Panel C, 20 µM) [fold]","hypoglycaemia occurred in patients ([2]; monotherapy, treated for ≤1 year) [%]",effective dosage range ([2]; patients with type 2 diabetes) [mg/day]
"CCCCCCCCCCCCP(=O)(OC)O[C@@H]1[C@H](O)[C@H](O)[C@@H](O)[C@H](O)[C@H]1O (stereo partly drawn) [GPI-2349, myo-inositol-1-O-dodecylphosphonic acid methylester]",27 ± 6,–,–,–,–,–
"CCC1=C(C)CN(C(=O)NCCc2ccc(S(=O)(=O)NC(=O)N[C@H]3CC[C@H](C)CC3)cc2)C1=O [Glimepiride, glimepiride]",–,completely abrogated,up to 4 fold,3,10 to 20,0.5 to 8
